Holding throughout (assay type): functional
One assay concerns Micrococcus luteus. As to the kind of experiment: Antibacterial activity against Micrococcus luteus SCSIO ML01 measured after 16 hrs by broth microdilution method. For orientation: In broth dilution the organism is exposed to a series of concentrations in liquid medium.
The subject of another assay is Klebsiella pneumoniae. Briefly: Antibacterial activity against Klebsiella pneumoniae ATCC 13883 measured after 16 hrs by broth microdilution method.
A further assay relates to Staphylococcus aureus. Briefly: Antibacterial activity against Staphylococcus aureus ATCC 29213 measured after 16 hrs by broth microdilution method.
A further assay deals with Vibrio alginolyticus. As to the kind of experiment: Antibacterial activity against Vibrio alginolyticus 13214 measured after 16 hrs by broth microdilution method.
Another assay deals with Acinetobacter baumannii. As to the kind of experiment: Antibacterial activity against Acinetobacter baumannii ATCC 19606 measured after 16 hrs by broth microdilution method.

Values after ≈ are worked out from the molar mass of the structure shown.

As for `COc1cc(Cc2cnc(N)nc2N)cc(OC)c1OC` [TRIMETHOPRIM], the MIC (in general, the lowest concentration that inhibits growth of the organism) is 2 µg/mL (≈ 6.89 µM) in the assay on Micrococcus luteus; 0.125 µg/mL (≈ 0.431 µM) against Klebsiella pneumoniae; 2 µg/mL (≈ 6.89 µM) with Staphylococcus aureus; 0.125 µg/mL (≈ 0.431 µM) against Vibrio alginolyticus; 0.125 µg/mL (≈ 0.431 µM) in the assay on Acinetobacter baumannii.

`CC(=O)c1c(O)cc2c3c(cccc13)C=C(CO)O2`: the MIC was 8 µg/mL (≈ 31.2 µM) against Micrococcus luteus; 64 µg/mL (≈ 250 µM) in the assay with Klebsiella pneumoniae; 8 µg/mL (≈ 31.2 µM) against Staphylococcus aureus; more than 64 µg/mL against Vibrio alginolyticus; 64 µg/mL (≈ 250 µM) against Acinetobacter baumannii.

`CC(=O)c1c(O)cc2c3c(cccc13)C=C(C=O)O2`: the MIC is 32 µg/mL (≈ 126 µM) with Micrococcus luteus; 32 µg/mL (≈ 126 µM) against Klebsiella pneumoniae; more than 64 µg/mL in the assay with Staphylococcus aureus; 32 µg/mL (≈ 126 µM) in the assay on Vibrio alginolyticus; more than 64 µg/mL in the assay with Acinetobacter baumannii.

Take `CC(=O)c1c(O)cc2c3c(cccc13)C=C([C@H](O)[C@@H](C)O)O2`: the MIC was more than 64 µg/mL against Micrococcus luteus; 16 µg/mL (≈ 53.3 µM) against Klebsiella pneumoniae; more than 64 µg/mL in the assay with Staphylococcus aureus; 64 µg/mL (≈ 213 µM) against Vibrio alginolyticus; 32 µg/mL (≈ 107 µM) in the assay with Acinetobacter baumannii.

In the case of `CC(=O)CC1=Cc2cccc3c(C(C)=O)c(O)cc(c23)O1`, the MIC is 8 µg/mL (≈ 28.3 µM) in the assay with Micrococcus luteus; 8 µg/mL (≈ 28.3 µM) in the assay with Klebsiella pneumoniae; 8 µg/mL (≈ 28.3 µM) in the assay with Staphylococcus aureus; 32 µg/mL (≈ 113 µM) against Vibrio alginolyticus; more than 64 µg/mL in the assay with Acinetobacter baumannii.

Take `CC(=O)c1c(O)cc2c3c(cccc13)C=C([C@@H](O)[C@H](C)O)O2`: the MIC in the assay on Micrococcus luteus, against Klebsiella pneumoniae, in the assay with Staphylococcus aureus, in the assay on Vibrio alginolyticus and in the assay with Acinetobacter baumannii was more than 64 µg/mL throughout.

Consider `CC(=O)c1c(O)cc2c3c(cccc13)C=C([C@@H](O)[C@@H](C)O)O2`, for which the MIC with Micrococcus luteus, against Klebsiella pneumoniae, against Staphylococcus aureus, in the assay on Vibrio alginolyticus and in the assay on Acinetobacter baumannii was more than 64 µg/mL each time.

Consider `CC(=O)c1c(O)cc2c3c(cccc13)C=C([C@H](O)[C@H](C)O)O2`, for which the MIC in the assay on Micrococcus luteus, with Klebsiella pneumoniae, in the assay with Staphylococcus aureus, in the assay on Vibrio alginolyticus and against Acinetobacter baumannii was more than 64 µg/mL throughout.

Turning to `CC(=O)c1c(O)cc2c3c(cccc13)C=C(C)O2`, the MIC is 64 µg/mL (≈ 266 µM) with Micrococcus luteus; more than 64 µg/mL with Klebsiella pneumoniae; more than 64 µg/mL in the assay on Staphylococcus aureus; 64 µg/mL (≈ 266 µM) in the assay with Vibrio alginolyticus; more than 64 µg/mL in the assay with Acinetobacter baumannii.

Source of the values: ChEMBL document CHEMBL5257052, “Aromatic Polyketides from the Mangrove-Derived Streptomyces sp. SCSIO 40069” (2023).
